Source: patent EP0845265A1, “MUCOSAL P[…] PHYSIOLOGICALLY ACTIVE PEPTIDE” (Asahi Kasei Kogyo Kabushiki Kaisha, priority 1995, dated 1997)
Where a name gives a salt, the structure may show the parent alone.

Test: In vivo absorption of elcatonin by rats (nasal administration, serum level by RIA)
Set-up: species or system Wistar rats
Settings: diltiazem hydrochloride per se, without absorption promotor
Protocol: In vivo absorption of elcatonin by rats :
Wistar rats, male (Japan SLC, body weight 200 - 250 g), fasting overnight, 4 rats in a group, were anesthetized by pentobarbital (Nembutal inj. Dainippon Pharm. Co., Japan).
Polyethylene tube was inserted into the trachea by incised in the corvex. Tube was inserted into postnasal space after esophageal incision. Administration was conducted by pouring drug solution 25 µl prepared in use using micropipette into the right naris. Blood sample 200 µl was collected from femoral vein time dependently before and after administration of drug. Blood sample was centrifuged (15,000 rpm/10 min./5°C) and stored at -30 °C before analysis.
Elcatonin 20 units/ml (in physiological saline) 0.25 ml was subcutaneously administered for comparison with absorption rate (comparison 1).
Blood level was assayed by RIA.
Absorption rate is calculated by using area under the curve (AUC) in the comparison 1 from the following equation. Absorption rate (%) =(AUC (I.N.))/(AUC (S.C.))×(dose (S.C.))/(dose (I.N.))×100 [formula] wherein I. N. : nasal administraion and S.C. : subcutaneous administration. As clearly shown in Fig. 2, absorption of elcatonin was enhanced in above 2 fold through nasal mucosa by administering with absorption promotor sodium glycocholate and calciuim channel blocker as compared with sodium glycocholic acid per se.

COc1ccc([C@@H]2Sc3ccccc3N(CCN(C)C)C(=O)[C@@H]2OC(C)=O)cc1 [diltiazem hydrochloride, Diltiazem hydrochloride]
absorption promoting action: no absorption promoting action
